Data on three molecules can be found in patent US11253526B2, “Nanostructured formulations for the delivery of silibinin and other active ingredients for treating ocular diseases” (DISTRETTO TECNOLOGICO SICILIA MICRO E NANO SISTEMI …, priority 2014, dated 2022).

Several values for one entry are separate records, joined by “and”; a condition that tells them apart may be missing. Equal values may be shown once.

Data set [1] is described as follows: Average hydrodynamic diameter and polydispersity index by DLS / photo-correlation spectroscopy. The settings on record: DLS in PBS, pH 7.4; calixarene nanoaggregates. The format is physicochemical. The protocol:
The average diameter and the polydispersity index (PDI) of the SLN-A systems prepared were determined by photo-correlation spectroscopy (PCS) using a Zetasizer Nano ZSP (Malvern Instrument).
The average diameter and the polydispersity index (PDI) of the NLC-B systems coated with INU-EDA and chitosan prepared were determined by photo-correlation spectroscopy (PCS) using a Zetasizer Nano ZSP (Malvern Instrument).
(§1) The size distribution of micelles was determined through dynamic light scattering measurements using the Malvern Zetasizer Nano ZS. […] The aqueous solutions of micelles (2 mg/mL) were analyzed after filtration through cellulose membrane filters with 5 μm cut off. The average hydrodynamic diameter and the polydispersity index (PDI) were obtained using cumulative analyses of the correlation function. The zeta potential (mV) was calculated by the electrophoretic mobility and using the Smoluchowsky relation, assuming that K·a>>1 (where K and a are the Debye-Hückel parameter and the particle radius, respectively).
(§2) The average diameter, polydispersity index (PDI) and zeta potential of calixarene nanoparticles loaded and not with silibinin were measured using a Zetasizer Nano ZS-90 (Malvern Instrument), the reading was made at an angle of 90° with respect to the incident ray and analyzed in triplicate.

A short description of data set [2]: Zeta potential measurement. The format is physicochemical. The settings on record: in PBS, pH 7.4; calixarene nanoaggregates. The procedure: The zeta potential was measured according to the principles of the laser doppler velocimetry and of the light scattering analysis (M3-PALS technique) using a Zetasizer Nano ZSP (Malvern) with a He—Ne laser, power=4.0 mW, wavelength=633 nm.
as §1, §2

Data set [3] is described as follows: Degradation of curcumin in PBS and serum-free medium. In kind it is physicochemical.
In the next data set the test system is ARPE-19 retinal cells. The data set is described as follows: Biocompatibility / toxicity on ARPE-19 retinal cells. In kind it is cell-based. The procedure: (§3) Then, the effects of the conjugated and empty system were tested using the compound FeSO4 as oxidative insult, with changes in the cellular redox status. Over 24 hours of incubation, the cells are pre-treated for 20 h and then exposed to insult with 50 μM FeSO4 for three hours [“Pretreatment” 20 h drug+3 h insult]. The viability test conducted to evaluate the toxicity and the ability of protection from damage of the carrier in question is to assess the release of LDH in the culture medium. […] In subsequent experiments, the effects of post-treatment with calixarene based compounds were tested. Therefore, cells were treated with 50 μM FeSO4 for 5 hours and incubated for 20 hours with the various compounds.
(§4) The colloidal solutions of calixarene 1, calixarene loaded with active ingredient and active ingredient alone were tested for cytotoxicity: SIRC corneal cells (FIG. 11), J774 macrophages (FIG. 12) and ARPE retinal cells.

In the next data set the test system is SIRC corneal cells. Put plainly: Cytotoxicity on SIRC corneal cells. The format is cell-based. The settings on record: SIRC corneal (epithelial) cells. The protocol: as §4
In another data set the test system is J774 macrophages. The data set is described as follows: Cytotoxicity on J774 macrophages. The format is cell-based. The procedure:
as §4

Data set [4] concerns ARPE-19 cells. The data set is described as follows: LDH release, 20 h pretreatment then 50 μM FeSO4 insult. In kind it is cell-based. The protocol:
as §3

Data set [5] has as its system ARPE-19 cells. The data set is described as follows: LDH release, 50 μM FeSO4 for 5 hours then 20 h post-treatment. The format is cell-based. The settings on record: then 20 hours with compound. The procedure:
as §3

Another data set deals with cathepsin D. Put plainly: Western blot of cathepsin D after FeSO4 insult and post-treatment. The format is cell-based. An excerpt: Cathepsin D is an intracellular aspartyl protease, synthesized in the endoplasmic reticulum as pre-pro-enzyme that is processed up to generate active fragments. According to the cellular environment in which it resides, it can induce or inhibit apoptosis through different mechanisms. The 48 kDa fragment is an active intermediate form from which two additional active fragments are generated; therefore, its reduction is associated with the activation of the proteolytic process, vice versa its increase is indicative of an inhibition of apoptosis. In the presence of oxidative stress, the activation of cathepsin D may activate caspase 8 which in turn activates caspase 3, leading to cell death (Regulatory role of cathepsin D in apoptosis, A. Minarowska et al., (2007) Folia Histochemica et Cytobiologica) (Caspase-8-mediated apoptosis induced by oxidative stress is independent of the intrinsic pathway and dependent on cathepsins H. K. Baumgartner et al., (2007) Am J Physiol Gastrointest Liver Physiol.).

For the next data set, the system named is J774 cells. Put plainly: Viability / anti-inflammatory activity in J774 cells stimulated with LPS. In kind it is cell-based. The procedure: (§5) In particular, J774 cells were stimulated with lipopolysaccharide (LPS) at a concentration of 10 μg/mL for 24 hours, stimulation with LPS induces the activation of inflammatory processes such as NFκB nuclear translocation and cytokine production, if not also release of nitrites and nitrosative stress. The cell viability was then evaluated following stimulation with LPS (10 μg/mL for 24 hours) and 2-hour pretreatment of the delivery systems being studied at the different concentrations. […] The anti-inflammatory activity of the delivery systems was then evaluated through the Western Blot analysis. […] The NFκB activation involves the production of proteins and inflammatory mediators such as cyclooxygenase 2 (COX-2) and inducible nitric oxide synthase (iNOS) and consequent increase in the production of nitrites.

The test system of data set [6] is inducible nitric oxide synthase (iNOS). Put plainly: Western blot, iNOS level in LPS-stimulated J774 cells. In kind it is cell-based. The settings on record: LPS 10 μg/mL for 24 hours, pre-treatment. The procedure: as §5
The next data set deals with cyclooxygenase 2 (COX-2). Put plainly: Western blot, COX-2 level in LPS-stimulated J774 cells. The note with it: LPS 10 μg/mL for 24 hours, pre-treatment. In kind it is cell-based. The protocol: as §5
Data set [7] relates to Uveitis induced in Lewis rats. Put plainly: Uveitis model induced by LPS endotoxin, topical administration. The note with it: 16 and 72 hours after LPS injection. The format is in vivo. The procedure:
With the aim of verifying the effectiveness of the calixarene system loaded with the active ingredient to the eye site of interest, an experiment was conducted in vivo with an Uveitis model. Uveitis was induced in 160-180 g Lewis rats by single subcutaneous injection in the hind paw of 200 ìg of the LPS endotoxin from Salmonella Minnesota diluted in 0.2 mL PBS, pH 7.4. The control group received only 0.2 mL of PBS in the hind paw. […] The eyes were enucleated for histological and immunohistochemical analysis. The aqueous humor was also taken for protein dosing.

The test system of a further data set is PARP-1 protein. Put plainly: Western blotting of PARP-1 after H2O2 and post-treatment. In kind it is cell-based. The settings on record: samples treated with H2O2, post-treatment. The procedure: Lysates of retinal cells exposed to post-treatment with the INUC8PEG system, empty or conjugated with silibinin, were analyzed by western blotting for the expression of the PARP-1 protein, a poly (ADP-ribose) polymerase of 116 kDa involved in DNA repair in response to environmental stress (Calcium Overload Is A Critical Step In Programmed Necrosis Of Arpe-19 Cells Induced By High-Concentration H2O2 Guang-Yu Li et al., (2010) Biomedical And Environmental Sciences). In vivo and in vitro, PARP-1 is processed by Caspase 3 and Caspase 7 with the formation of a 24 kDa DNA-binding domain and an 89 kDa catalytic domain that participates in the apoptosis (Importance of Poly (ADP-ribose) Polymerase and Its Cleavage in Apoptosis F. J Oliver et al., (1998) J. Biol. Chem.).

The conditions of data set [8]: cited from earlier work.
Setting [9] is: 20 h incubation, cells not exposed to FeSO4.
The mark [10] stands for this setting: pre-treated 20 h, then FeSO4 (50 μM).

The molecule `CCCCCCCCCCCCOc1c2cc(C[N+](C)(C)CCO)cc1Cc1cc(C[N+](C)(C)CCO)cc(c1OCCCCCCCCCCCC)Cc1cc(C[N+](C)(C)CCO)cc(c1OCCCCCCCCCCCC)Cc1cc(C[N+](C)(C)CCO)cc(c1OCCCCCCCCCCCC)C2` [compound 1] yielded a PDI in [1] of 0.29. In data set [1], this molecule showed a Z-average of 44.3 nm. Also, in [2], the “Potential ζ” value is 24 mV. Also, the “protective effect towards curcumin” value in [3] (PBS as a solvent) is on record as “protects curcumin”. Also, the biocompatibility result in the data set on ARPE-19 retinal cells (ARPE-19 / ARPE retinal cells), in the data set with SIRC corneal cells and with J774 macrophages was “good biocompatibility” throughout. The toxicity result in the data set on ARPE-19 retinal cells (concentrations 0.01-1 μM, incubated for 20 hours) is listed as “caused no toxicity”. Also, the “release of LDH” value is “do not significantly change the release of LDH” in the data set on ARPE-19 cells [4] (setting [9]) and “an effect not observed” in the data set with ARPE-19 cells [4] (setting [10]). The “protection against insult (LDH release)” value in the data set with ARPE-19 cells [5] was “individually able to protect from the redox status alteration”. Further, the “expression levels of cathepsin D (48 kDa band)” value in the data set with cathepsin D is “increases the expression levels of cathepsin D”. In the data set on J774 cells (LPS 10 μg/mL for 24 hours, 2-hour pretreatment), the “cell viability following stimulation with LPS” value is on record as “able to restore the cell viability”. For the same molecule, in the data set with J774 cells (macrophages subjected to inflammatory stress with LPS), the “anti-inflammatory activity, rank order” value is “calixarene loaded with curcumin>>calixarene>>curcumin alone”. Further, the “levels of iNOS” value in data set [6] is “reduces significantly and in a dose-dependent manner”. In the data set on cyclooxygenase 2 (COX-2), the “levels of COX-2” value is “reduces significantly and in a dose-dependent manner”. Also, the “ocular inflammation / histologic damage” value in data set [7] is on record as “the degree of inflammation was not reduced”. Further, the “protein levels in the aqueous humor” value in data set [7] is “did not result in a reduction in the protein levels”.

On to `COc1cc(/C=C/C(=O)CC(=O)/C=C/c2ccc(O)c(OC)c2)ccc1O` [curcumin, diferuloylmethane], for which the degradation in [3] (in 30 min, 0.1 M PBS and serum-free medium) was 80-90% and 90%. Further, in data set [6], the “levels of iNOS” value was “reduces significantly and in a dose-dependent manner”. Besides, in the data set with cyclooxygenase 2 (COX-2), the “levels of COX-2” value was “reduces significantly and in a dose-dependent manner”. In [7], the “ocular inflammation / histologic damage” value is reported as “significantly decreased the histologic damage” and the “protein levels in the aqueous humor” value is “most effectively determined the reduction of proteins”.

In the case of Silibinin [reference compound], the “inhibition of apoptosis induced by oxidative damage” value in the data set with PARP-1 protein was “reduces the apoptotic process, however with less efficiency than the conjugated carrier”. The “release of LDH” value in the data set with ARPE-19 cells [4] (setting [9]) is given as “reduces the release of LDH”; with ARPE-19 cells [4] (setting [10]) it was “an effect not observed”. Also, the “protection against insult (LDH release)” value with ARPE-19 cells [5] is given as “individually able to protect from the redox status alteration”. Besides, in the data set with cathepsin D, the “expression levels of cathepsin D (48 kDa band)” value is reported as “increases the expression levels of cathepsin D”. The “ocular inflammation / histologic damage” value in [7] is “decreased but not significant ocular inflammation”. Moreover, in data set [7], the “protein levels in the aqueous humor” value is “a trend but not significant”. Further, in data set [8], the solubility in water was 0.43 mg/mL.
